The results in this text go back to patent US9522888B2, “Substituted bicyclic compounds” (BRISTOL-MYERS SQUIBB COMPANY, priority 2014, dated 2016).

“Also recorded” adds a separate entry of the source.

Experiment [1] has as its system circulating lymphocytes. Nature of the experiment: Blood Lymphocyte Reduction (BLR) assay in rat. Type of experiment: in vivo, Lewis rats. To be noted: oral, 0.1 mg/kg. On the procedure: (§1) Blood Lymphocyte Reduction (BLR) Assay in Rodent:
(§2) Lewis rats or BALB/c mice were dosed orally with vehicle alone (polyethylene glycol 300, “PEG300”) or with test compounds. Compounds were dosed as a solution or suspension in the vehicle, adjusted to reflect the free amount of test article in the event that salt forms are utilized. Blood was drawn at 24 hr and blood lymphocyte counts were determined on an ADVIA 120 Hematology Analyzer (Siemens Healthcare Diagnostics). The results were measured as a reduction in the percentage of circulating lymphocytes as compared to the vehicle treated group at the time of measurement. The results represent the average results of all animals within each treatment group (n=2-4).

Experiment [2] has as its system circulating lymphocytes. Nature of the experiment: Blood Lymphocyte Reduction (BLR) assay in mouse. Type of experiment: in vivo, BALB/c mice. To be noted: oral, 0.5 mg/kg. On the procedure:
as §1, §2

The test system of experiment [3] is MOG35-55 induced EAE, clinical score. Nature of the experiment: Mouse Experimental Autoimmune Encephalomyelitis Assay (EAE). The note with it: for Clinical scores on day 22, Mean: C57BL/6 mice, prophylactic oral. The experiment is classed as in vivo, C57BL/6 mice.
The next experiment has as its system anti-dsDNA antibodies. Nature of the experiment: MRL/lpr lupus model: anti-dsDNA antibody titers (ELISA). To be noted: MRL/lpr mice; for Anti-dsDNA antibody titers (23 weeks of age) (Mean): ratio to pooled MRL/lpr immune serum titer. The experiment is classed as in vivo, Male MRL/lpr mice. As for the experimental part: (§3) MRL/lpr is a spontaneous model of lupus. Male MRL/lpr mice (Jackson Laboratory) at the age of 12-14 weeks were enrolled for the study (N=12). Mice were dosed p.o. daily with vehicle (18.4% (w/v) hydroxypropyl-b-cyclodextrin in 13.8 mM citric acid) or with Example 681 at 0.06, 0.3, 1.5 mg/kg. Mice were bled every other week for anti-dsDNA antibodies measured by ELISA using pooled serum from diseased MRL/lpr mice as a positive comparator in each assay. The data were expressed in arbitrary units as a ratio of the titer of the test serum to the titer of the pooled MRL/lpr immune serum.
In general terms: ELISA stands for enzyme-linked immunosorbent assay.

The test system of a further experiment is kidney histology score. Put plainly: MRL/lpr lupus model: kidney histological analysis. The experiment is classed as in vivo, Male MRL/lpr mice. To be noted: MRL/lpr mice; for Kidney Histology (nephritis) 23 weeks of age (Mean): total score, highest possible score=36. As for the experimental part: as §3
At the end of study, one kidney was collected into 10% neutral buffered formalin and ZincTris fixatives. Fixed tissues were processed into paraffin blocks, sectioned at 3 μm, and stained with H&E or PASH. Kidney sections were graded using following criteria: Glomerular Damage: 1. Mesangial matrix thickening, cell proliferation, 2. Crescent formation, cellular deposits/casts in Bowman's space, 3. Cellular infiltration, mononuclear cells in glomerular tufts, 4. Fibrosis of Bowman's capsule. Tubular damage: 1. Infiltration of mononuclear cells, 2. Severity of tubular damage, 3. Protein casts. Tubulo-interstitial damage: 1. Fibrosis, 2. Infiltration of mononuclear cells. Each subcategory was assigned a score from 0-4, with the scores for glomerular indices representing the mean from 20 glomeruli per kidney. The total score for each mouse was the sum of the above 9 subcategories, with the highest possible score=36.

Where [4] appears, read: p.o. daily 0.06, 0.3, 1.5 mg/kg, result in words.

Regarding `COc1ccccc1CC[C@@H]1CCc2cc([C@H]3CC[C@](N)(CO)C3)ccc2C1` [Example 681, ((1R,3S)-1-amino-3-((S)-6-(2-methoxyphenethyl)-5,6,7,8-tetrahydronaphthalen-2-yl)cyclopentyl)methanol], the “Percent reduction vs. control at 24 hr post-dose” value with circulating lymphocytes [1] (blood lymphocytes, 24 hr post-dose) came to 53%. In addition, the lymphocyte reduction in the experiment with circulating lymphocytes [1] (rodent BLR assay, 24 hours post-dose, versus vehicle treated group) was 53%; with circulating lymphocytes [2] (mice, 24 hours post dose) it was 85%. Also, in the experiment with circulating lymphocytes [2] (mouse, 24 hr post-dose), the “Mouse Blood Lymphocyte Reduction Assay at 24 hr post-dose Percent reduction vs. control” value is listed as 85%. For the same molecule, the “Clinical scores on day 22, Mean” value in experiment [3] (0.1 mg/kg) is reported as 3.1; in experiment [3] (0.5 mg/kg), 1.1; in experiment [3] (2 mg/kg), 0.8. Moreover, the “inhibition of disease progression as measured by clinical scores” value in experiment [3] (C57Bl/6 mice, prophylactic oral dosing regimen, result in words) is reported as “showed inhibition of disease progression; also recorded: inhibit disease progression”. Moreover, the “Anti-dsDNA antibody titers (23 weeks of age) (Mean)” value in the experiment on anti-dsDNA antibodies (0.06 mg/kg p.o. daily) is 1.861 arbitrary units; in the experiment with anti-dsDNA antibodies (0.3 mg/kg p.o. daily), 0.978 arbitrary units; in the experiment on anti-dsDNA antibodies (1.5 mg/kg p.o. daily), 1.023 arbitrary units. For the same molecule, in the experiment with anti-dsDNA antibodies (setting [4]), the “inhibition of disease progression as measured by anti-dsDNA titers” value was “showed inhibition of disease progression”. For the same molecule, the “Kidney Histology (nephritis) 23 weeks of age (Mean)” value with kidney histology score (0.06 mg/kg p.o. daily) is 10.13; with kidney histology score (0.3 mg/kg p.o. daily) it was 10.00; in the experiment with kidney histology score (1.5 mg/kg p.o. daily), 12.63. In addition, in the experiment on kidney histology score (setting [4]), the “inhibition of disease progression as measured by kidney histology” value is given as “showed inhibition of disease progression”.
